Measured values taken from ChEMBL document CHEMBL4828725 (Eur J Med Chem, 2021).
pIC50: −log10 of the molar value.

Tests used:
[1] = target: T1, Sucrase-isomaltase, intestinal (Rattus norvegicus, UniProt P23739); test: Inhibition of rat intestinal isomaltase using p-nitrophenyl glycoside as substrate assessed as release of p-nitrophenol measured by spectrometric assay; details: for pIC50: read-out: IC50
Prunus dulcis = test: Inhibition of almond beta-glucosidase using p-nitrophenyl glycoside as substrate assessed as release of p-nitrophenol at 1000 uM measured by spectrometric assay relative to control
[2] = Inhibition of rice alpha-glucosidase using p-nitrophenyl glycoside as substrate assessed as release of p-nitrophenol measured by spectrometric assay; design: species or system Oryza sativa; details: read-out: IC50
[3] = target: T2, Alpha-mannosidase (Canavalia ensiformis) (UniProt C0HJB3); test: Inhibition of jack bean alpha-mannosidase using p-nitrophenyl glycoside as substrate assessed as release of p-nitrophenol at 1000 uM measured by spectrometric assay relative to control
T2 sequence (whole entry): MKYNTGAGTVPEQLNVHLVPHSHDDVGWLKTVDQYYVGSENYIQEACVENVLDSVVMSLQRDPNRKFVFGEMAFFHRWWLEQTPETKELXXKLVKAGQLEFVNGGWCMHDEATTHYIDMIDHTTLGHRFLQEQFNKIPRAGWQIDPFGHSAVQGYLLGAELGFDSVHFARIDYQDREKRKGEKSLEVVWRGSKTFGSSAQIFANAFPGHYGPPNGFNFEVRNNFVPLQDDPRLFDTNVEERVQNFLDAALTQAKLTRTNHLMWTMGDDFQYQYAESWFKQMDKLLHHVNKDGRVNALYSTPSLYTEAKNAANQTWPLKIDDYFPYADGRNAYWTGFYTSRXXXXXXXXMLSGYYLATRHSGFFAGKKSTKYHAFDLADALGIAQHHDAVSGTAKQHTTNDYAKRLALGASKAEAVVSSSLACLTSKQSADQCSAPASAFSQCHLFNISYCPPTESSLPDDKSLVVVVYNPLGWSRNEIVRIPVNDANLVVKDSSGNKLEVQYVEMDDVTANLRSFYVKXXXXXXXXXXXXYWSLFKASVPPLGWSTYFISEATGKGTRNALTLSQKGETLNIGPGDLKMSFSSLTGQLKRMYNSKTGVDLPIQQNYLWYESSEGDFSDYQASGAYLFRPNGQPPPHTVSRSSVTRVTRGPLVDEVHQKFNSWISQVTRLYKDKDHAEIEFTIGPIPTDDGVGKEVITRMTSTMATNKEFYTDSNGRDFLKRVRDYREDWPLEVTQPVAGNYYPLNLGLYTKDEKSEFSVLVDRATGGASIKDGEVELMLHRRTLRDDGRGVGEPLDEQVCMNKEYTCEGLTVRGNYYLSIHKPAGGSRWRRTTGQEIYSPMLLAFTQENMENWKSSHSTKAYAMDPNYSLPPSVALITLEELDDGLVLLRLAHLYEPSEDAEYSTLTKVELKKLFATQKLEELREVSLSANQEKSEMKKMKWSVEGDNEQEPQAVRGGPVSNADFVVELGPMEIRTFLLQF

Bos taurus [4] = species on record: Bos taurus; test: Inhibition of bovine liver beta-galactosidase using p-nitrophenyl glycoside as substrate assessed as release of p-nitrophenol at 1000 uM measured by spectrometric assay relative to control
Beta-glucuronidase = Beta-glucuronidase (Escherichia coli (strain K12), UniProt P05804); test: Inhibition of Escherichia coli beta-glucuronidase using p-nitrophenyl glycoside as substrate assessed as release of p-nitrophenol measured by spectrometric assay
[5] = Inhibition of rat intestinal maltase using maltose as substrate assessed as release of D-glucose measured by spectrometric assay
Penicillium decumbens = test: Inhibition of Penicillium decumbens alpha-L-rhamnosidase using p-nitrophenyl glycoside as substrate assessed as release of p-nitrophenol at 1000 uM measured by spectrometric assay relative to control
Alpha-galactosidase = Alpha-galactosidase (Coffea arabica, UniProt Q42656); test: Inhibition of coffee beans alpha-galactosidase using p-nitrophenyl glycoside as substrate assessed as release of p-nitrophenol measured by spectrometric assay
[6] = target: T3, Tissue alpha-L-fucosidase (Bos taurus, UniProt Q2KIM0); test: Inhibition of bovine kidney alpha-L-fucosidase using p-nitrophenyl glycoside as substrate assessed as release of p-nitrophenol measured by spectrometric assay
T3 sequence (Q2KIM0 whole entry): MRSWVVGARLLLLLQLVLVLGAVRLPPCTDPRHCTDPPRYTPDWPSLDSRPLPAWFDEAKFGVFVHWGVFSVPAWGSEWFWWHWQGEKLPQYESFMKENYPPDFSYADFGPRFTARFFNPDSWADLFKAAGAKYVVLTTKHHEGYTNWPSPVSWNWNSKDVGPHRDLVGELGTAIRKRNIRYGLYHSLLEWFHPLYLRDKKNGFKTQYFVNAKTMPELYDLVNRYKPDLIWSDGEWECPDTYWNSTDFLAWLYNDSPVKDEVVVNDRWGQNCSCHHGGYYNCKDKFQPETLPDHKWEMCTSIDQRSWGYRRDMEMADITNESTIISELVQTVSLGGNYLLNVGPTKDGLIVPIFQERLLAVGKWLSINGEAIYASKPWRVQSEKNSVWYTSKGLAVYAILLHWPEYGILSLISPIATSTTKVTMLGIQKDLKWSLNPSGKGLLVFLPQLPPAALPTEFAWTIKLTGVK

[7] = Inhibition of bovine liver beta-galactosidase using p-nitrophenyl glycoside as substrate assessed as release of p-nitrophenol measured by spectrometric assay; type: tissue-based, Bos taurus; details: for pIC50: read-out: IC50
[8] = target: Beta-glucuronidase (Escherichia coli (strain K12)) (UniProt P05804); test: Inhibition of Escherichia coli beta-glucuronidase using p-nitrophenyl glycoside as substrate assessed as release of p-nitrophenol at 1000 uM measured by spectrometric assay relative to control
[9] = target: Alpha-galactosidase (Coffea arabica) (UniProt Q42656); test: Inhibition of coffee beans alpha-galactosidase using p-nitrophenyl glycoside as substrate assessed as release of p-nitrophenol at 1000 uM measured by spectrometric assay relative to control
[10] = Inhibition of bovine liver beta-glucosidase using p-nitrophenyl glycoside as substrate assessed as release of p-nitrophenol measured by spectrometric assay; design: species or system Bos taurus; details: for pIC50: read-out: IC50
[11] = Inhibition of porcine kidney alpha-trehalase using p-nitrophenyl glycoside as substrate assessed as release of p-nitrophenol measured by spectrometric assay; design: species or system Sus scrofa
[12] = target: T4, Tissue alpha-L-fucosidase (Bos taurus) (UniProt Q2KIM0); test: Inhibition of bovine kidney alpha-L-fucosidase using p-nitrophenyl glycoside as substrate assessed as release of p-nitrophenol at 1000 uM measured by spectrometric assay relative to control; type: tissue-based
T4 sequence (whole entry): T3 sequence (Q2KIM0 whole entry)

Aspergillus niger = test: Inhibition of Aspergillus niger amyloglucosidase using p-nitrophenyl glycoside as substrate assessed as release of p-nitrophenol at 1000 uM measured by spectrometric assay relative to control
Helix pomatia = test: Inhibition of snail beta-mannosidase using p-nitrophenyl glycoside as substrate assessed as release of p-nitrophenol at 1000 uM measured by spectrometric assay relative to control
[13] = Inhibition of snail beta-mannosidase using p-nitrophenyl glycoside as substrate assessed as release of p-nitrophenol measured by spectrometric assay; design: species or system Helix pomatia
[14] = target: T1, Sucrase-isomaltase, intestinal; test: Inhibition of rat intestinal sucrase using p-nitrophenyl glycoside as substrate assessed as release of p-nitrophenol measured by spectrometric assay; details: read-out: IC50
[15] = Inhibition of Aspergillus niger amyloglucosidase using p-nitrophenyl glycoside as substrate assessed as release of p-nitrophenol measured by spectrometric assay
[16] = Inhibition of jack bean alpha-mannosidase using p-nitrophenyl glycoside as substrate assessed as release of p-nitrophenol measured by spectrometric assay; design: species or system Canavalia ensiformis
[17] = Inhibition of Penicillium decumbens alpha-L-rhamnosidase using p-nitrophenyl glycoside as substrate assessed as release of p-nitrophenol measured by spectrometric assay
[18] = Inhibition of almond beta-glucosidase using p-nitrophenyl glycoside as substrate assessed as release of p-nitrophenol measured by spectrometric assay; design: species or system Prunus dulcis
Bos taurus [19] = species on record: Bos taurus; test: Inhibition of bovine liver beta-glucosidase using p-nitrophenyl glycoside as substrate assessed as release of p-nitrophenol at 1000 uM measured by spectrometric assay relative to control; type: tissue-based
Sus scrofa = species on record: Sus scrofa; test: Inhibition of porcine kidney alpha-trehalase using p-nitrophenyl glycoside as substrate assessed as release of p-nitrophenol at 1000 uM measured by spectrometric assay relative to control

Chain of Beta-glucuronidase (P05804 whole entry): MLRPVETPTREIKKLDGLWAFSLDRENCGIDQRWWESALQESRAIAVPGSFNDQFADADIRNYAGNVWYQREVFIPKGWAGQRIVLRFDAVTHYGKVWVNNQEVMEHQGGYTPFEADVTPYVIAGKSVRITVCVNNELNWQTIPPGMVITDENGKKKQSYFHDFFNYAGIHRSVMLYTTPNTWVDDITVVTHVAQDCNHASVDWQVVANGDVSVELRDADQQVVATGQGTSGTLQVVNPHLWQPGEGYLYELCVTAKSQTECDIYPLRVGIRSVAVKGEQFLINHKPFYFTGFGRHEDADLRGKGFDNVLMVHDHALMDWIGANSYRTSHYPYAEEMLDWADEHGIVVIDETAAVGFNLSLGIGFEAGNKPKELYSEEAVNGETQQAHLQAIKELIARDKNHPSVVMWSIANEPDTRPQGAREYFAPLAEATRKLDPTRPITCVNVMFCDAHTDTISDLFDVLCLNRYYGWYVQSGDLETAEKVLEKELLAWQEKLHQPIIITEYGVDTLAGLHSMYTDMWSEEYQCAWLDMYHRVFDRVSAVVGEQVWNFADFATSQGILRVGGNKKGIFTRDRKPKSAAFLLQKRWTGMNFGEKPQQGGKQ
Chain of Beta-glucuronidase (Escherichia coli (strain K12)) (P05804 whole entry, looked up): as the sequence (P05804 whole entry) above
Chain of Alpha-galactosidase (Q42656 whole entry): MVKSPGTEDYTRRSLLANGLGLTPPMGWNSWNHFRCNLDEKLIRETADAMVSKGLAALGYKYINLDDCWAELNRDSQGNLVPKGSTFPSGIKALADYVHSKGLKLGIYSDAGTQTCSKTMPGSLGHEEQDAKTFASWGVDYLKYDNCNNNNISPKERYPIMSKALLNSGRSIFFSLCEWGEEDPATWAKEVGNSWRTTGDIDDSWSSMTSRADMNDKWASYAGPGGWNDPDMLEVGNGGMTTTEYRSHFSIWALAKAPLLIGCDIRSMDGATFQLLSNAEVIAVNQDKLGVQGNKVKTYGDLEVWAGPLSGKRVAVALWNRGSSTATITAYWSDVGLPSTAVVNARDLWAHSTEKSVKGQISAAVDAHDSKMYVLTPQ
T1 sequence (P23739 1-1013 limits assumed): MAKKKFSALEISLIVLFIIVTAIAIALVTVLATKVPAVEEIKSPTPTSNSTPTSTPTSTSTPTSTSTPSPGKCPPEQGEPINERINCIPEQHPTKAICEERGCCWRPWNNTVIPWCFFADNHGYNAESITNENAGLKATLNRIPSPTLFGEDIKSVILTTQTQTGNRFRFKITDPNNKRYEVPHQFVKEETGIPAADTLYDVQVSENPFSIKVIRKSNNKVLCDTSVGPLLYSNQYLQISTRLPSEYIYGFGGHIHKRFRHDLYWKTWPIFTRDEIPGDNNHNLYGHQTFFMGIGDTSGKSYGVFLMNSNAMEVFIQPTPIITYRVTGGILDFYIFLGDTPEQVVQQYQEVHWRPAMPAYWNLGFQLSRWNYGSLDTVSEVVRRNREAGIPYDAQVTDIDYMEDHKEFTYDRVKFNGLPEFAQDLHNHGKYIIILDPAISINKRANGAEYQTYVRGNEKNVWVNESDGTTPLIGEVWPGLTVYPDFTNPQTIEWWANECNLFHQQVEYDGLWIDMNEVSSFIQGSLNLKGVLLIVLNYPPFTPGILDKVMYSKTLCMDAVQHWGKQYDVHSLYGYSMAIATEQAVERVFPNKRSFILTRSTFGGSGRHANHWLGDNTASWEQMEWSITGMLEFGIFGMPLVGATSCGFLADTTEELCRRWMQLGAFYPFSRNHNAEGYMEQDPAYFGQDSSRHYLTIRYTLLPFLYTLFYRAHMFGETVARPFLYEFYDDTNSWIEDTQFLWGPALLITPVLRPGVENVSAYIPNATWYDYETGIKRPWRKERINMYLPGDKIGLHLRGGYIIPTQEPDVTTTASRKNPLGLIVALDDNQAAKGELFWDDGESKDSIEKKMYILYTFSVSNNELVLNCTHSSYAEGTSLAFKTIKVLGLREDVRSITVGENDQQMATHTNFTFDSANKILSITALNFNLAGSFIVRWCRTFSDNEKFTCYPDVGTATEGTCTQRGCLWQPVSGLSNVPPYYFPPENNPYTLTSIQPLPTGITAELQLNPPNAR
T1 sequence (P23739 1014-1841 limits assumed): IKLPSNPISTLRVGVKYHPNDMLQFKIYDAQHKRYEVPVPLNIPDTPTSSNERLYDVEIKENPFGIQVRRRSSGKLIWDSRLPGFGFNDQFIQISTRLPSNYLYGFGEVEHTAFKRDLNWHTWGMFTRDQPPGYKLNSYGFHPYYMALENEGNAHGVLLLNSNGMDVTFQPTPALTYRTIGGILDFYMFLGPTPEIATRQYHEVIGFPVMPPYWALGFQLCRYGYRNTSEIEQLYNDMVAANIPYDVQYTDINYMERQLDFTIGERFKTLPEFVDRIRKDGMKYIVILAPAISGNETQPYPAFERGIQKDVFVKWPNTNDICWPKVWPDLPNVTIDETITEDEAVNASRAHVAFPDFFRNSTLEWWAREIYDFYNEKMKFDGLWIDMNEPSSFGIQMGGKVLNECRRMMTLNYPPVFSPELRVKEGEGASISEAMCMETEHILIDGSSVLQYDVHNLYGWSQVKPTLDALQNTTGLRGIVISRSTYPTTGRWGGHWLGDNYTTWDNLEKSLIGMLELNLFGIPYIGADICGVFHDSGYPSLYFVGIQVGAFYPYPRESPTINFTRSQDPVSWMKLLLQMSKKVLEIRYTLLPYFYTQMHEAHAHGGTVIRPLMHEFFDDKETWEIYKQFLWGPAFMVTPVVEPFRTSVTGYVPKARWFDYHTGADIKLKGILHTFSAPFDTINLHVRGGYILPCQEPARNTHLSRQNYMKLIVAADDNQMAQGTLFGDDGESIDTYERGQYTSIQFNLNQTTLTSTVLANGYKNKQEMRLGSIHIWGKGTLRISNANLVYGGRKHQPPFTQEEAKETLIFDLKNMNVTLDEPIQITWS
Chain of Alpha-galactosidase (Coffea arabica) (Q42656 16-378 limits assumed): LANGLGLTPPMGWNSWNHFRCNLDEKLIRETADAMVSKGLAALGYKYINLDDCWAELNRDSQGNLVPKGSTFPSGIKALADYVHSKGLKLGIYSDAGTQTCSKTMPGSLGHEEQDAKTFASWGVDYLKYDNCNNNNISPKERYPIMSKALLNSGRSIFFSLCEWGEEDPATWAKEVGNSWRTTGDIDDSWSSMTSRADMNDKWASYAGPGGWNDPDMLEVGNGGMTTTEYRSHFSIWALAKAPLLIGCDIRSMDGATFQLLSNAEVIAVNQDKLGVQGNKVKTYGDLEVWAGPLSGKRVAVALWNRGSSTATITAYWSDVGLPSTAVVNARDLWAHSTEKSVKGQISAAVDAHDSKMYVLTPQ

SMILES | inhibition (Prunus dulcis) | pIC50 [2] | inhibition [3] | IC50 (Beta-glucuronidase) | pIC50 [5] | inhibition (Penicillium decumbens) | IC50 (Alpha-galactosidase) | IC50 [6] | inhibition [8] | inhibition [9] | inhibition [12] | inhibition (Aspergillus niger) | inhibition (Helix pomatia) | IC50 [13] | pIC50 [14] | IC50 [15] | IC50 [16] | IC50 [17] | IC50 [18] | IC50 [11] | further results
CC[C@]1(CO)NC[C@H](O)[C@@H](O)[C@@H]1O.Cl | 5.6% | 7.01 | 1.6% | Not Active | 6.96 | 0% | Not Active | Not Active | 3.6% | 30.1% | 2.1% | 0% | 1.1% | Not Active | 7.00 | Not Active | Not Active | Not Active | Not Active |  | pIC50 [1]: 5.92; inhibition (Bos taurus [4]): 18.4%; IC50 [7]: Not Active; IC50 [10]: Not Active; pIC50 ([11]; read-out: IC50): 4.03; inhibition (Bos taurus [19]): 15.3%
CCCCCCC[C@@]1(CO)NC[C@H](O)[C@@H](O)[C@@H]1O.Cl | 6.9% | 5.00 | 2.4% | Not Active | 4.72 | 0% | Not Active | Not Active | 2.5% | 8% | 0% | 11.9% | 0% | Not Active | 4.05 | Not Active | Not Active | Not Active | Not Active | Not Active | IC50 [1]: Not Active; inhibition (Bos taurus [4]): 28.4%; IC50 [7]: Not Active; IC50 [10]: Not Active; inhibition (Bos taurus [19]): 16.5%; inhibition (Sus scrofa): 4.2%
CCCCCCCCC[C@@]1(CO)NC[C@H](O)[C@@H](O)[C@@H]1O.Cl | 32.9% | 5.48 | 0% | Not Active | 5.02 | 3.5% | Not Active | Not Active | 38.1% | 15.3% | 1.5% | 2.7% | 0.6% | Not Active | 4.38 | Not Active | Not Active | Not Active | Not Active | Not Active | pIC50 [1]: 3.91; pIC50 [7]: 4.54; pIC50 [10]: 3.67; inhibition (Sus scrofa): 0%
CCCC[C@@]1(CO)NC[C@H](O)[C@@H](O)[C@@H]1O.Cl | 6.2% | 4.07 | 4.4% | Not Active | 3.96 | 22.8% | Not Active | Not Active |  | 12.5% | 16% | 3.8% | 3% | Not Active | 3.62 | Not Active | Not Active | Not Active | Not Active | Not Active | IC50 [1]: Not Active; pIC50 [7]: 4.28; pIC50 [10]: 3.83; inhibition (Sus scrofa): 0%
